{"source": "ChEMBL document CHEMBL1157539", "about": "“Thousands of chemical starting points for antimalarial lead identification” (Nature, 2010)"}
{"tested_on": "Plasmodium falciparum", "test": "GSK_TCMDC: Inhibition of Plasmodium falciparum 3D7 in whole erythrocytes, using parasite LDH activity as an index of growth.", "format": "functional, organism-based", "conditions": "Plasmodium falciparum, 3D7", "units": {"XC50": "nM"}}
{"smiles": "O=C(/C=C/c1ccc(Cl)c(Cl)c1)NCCCCN1CCC(c2c[nH]c3ccccc23)CC1", "XC50": 859}
{"smiles": "CN1CCCN(Cc2ccc(-c3cccc(NC(=O)c4cccc(Cl)c4)c3)cc2)CC1", "XC50": 837}
{"smiles": "CC1CN(Cc2ccccc2)CCN1c1ccc(NC(=O)c2ccc(F)cc2)cc1", "note": "(centres undefined)", "XC50": 1010}
{"smiles": "Cc1nc(-c2nc(N3CCC(C(N)=O)CC3)ncc2-c2ccsc2)sc1C", "XC50": 902}
{"smiles": "Fc1ccc2[nH]c(-c3ccc(-c4ccc(CN5CCN(CCN6CCOCC6)CC5)cc4)s3)nc2c1", "XC50": 147}
{"smiles": "CN(C)CCCOc1ccc(CNCc2cccc(Oc3ccc(Cl)cc3)c2)cc1", "XC50": 824}
{"smiles": "Fc1ccc(-c2csc3ncnc(Cl)c23)cc1", "XC50": 331}
{"smiles": "CCC(CC(C)C(=O)O)=C(c1ccccc1)c1ccccc1", "note": "(centres undefined)", "XC50": 224}
{"smiles": "COc1ccc(O)c(CN2CCN(c3cc(C)ccc3C)CC2)c1", "XC50": 1010}
{"smiles": "Cc1nc(C)c(-c2ccc(Oc3ccc(Cl)c(Cl)c3)cc2)c(O)c1Cl", "XC50": 106}
{"smiles": "NCC(=O)NC12CC3CC(CC(C3)C1)C2", "XC50": 1200}
{"smiles": "Nc1nc(N)c2c(ccc3c2cnn3Cc2cccnc2)n1", "XC50": 48.1}
{"smiles": "CN(C)CCNCc1ccc(-c2ccc(-c3nc4ccccc4[nH]3)s2)cc1", "XC50": 569}
{"smiles": "NC(=O)Nc1ccc2c(Nc3ccc(OCc4ccccc4)cc3)ncnc2c1", "XC50": 1260}
{"smiles": "CC1(C)NC(=N)NC(=N)N1OCC=Cc1ccccc1", "XC50": 4.24}
{"smiles": "CC(C)(C)CCOC(=O)N1CCc2c(cc(O)c(O)c2Cl)C(c2ccc(O)cc2)C1", "note": "(centres undefined)", "XC50": 752}
{"smiles": "CCNc1cc(C(=O)N[C@@H](Cc2ccccc2)[C@H](O)CNCCC(C)(C)C)c(F)c(N2CCCCS2(=O)=O)c1", "XC50": 797}
{"smiles": "Cc1ccc(Cc2c(N)nc3nc(N)nc(N)c3c2C)cc1", "XC50": 188}
{"smiles": "COc1cc(C(=O)NCCCN2CCN(c3cccc(Cl)c3)CC2)ccc1-c1cc2cc(Cl)c(Cl)cc2[nH]1", "XC50": 468}
{"smiles": "Cc1cc(NC(=O)c2cccs2)ccc1OC1CCN(Cc2ccc(C#N)cc2)CC1", "XC50": 721}
{"smiles": "Cn1ccnc1Sc1ncccc1[N+](=O)[O-]", "XC50": 968}
{"smiles": "COc1ccc(-n2ccnc2)cc1CNC1CCN(CC2Cn3c(=O)ccc4ccc(F)c2c43)CC1", "note": "(centres undefined)", "XC50": 927}
{"smiles": "Fc1ccc2[nH]c(-c3ccc(-c4ccc(CN5CCC(CCN6CCCCC6)CC5)cc4)s3)nc2c1", "XC50": 142}
{"smiles": "Cc1cc(N(C)CCCN(C)C)nc(Nc2ccc(Br)cc2)n1", "XC50": 643}
{"smiles": "COc1ccc(N2CCN(CCCCNC(=O)c3ccc(NC(=O)c4cc(Cl)cc(Cl)c4)cc3)CC2)c(OC)c1", "XC50": 299}
{"smiles": "O=C(Nc1c(F)cccc1F)c1cccc(-c2nn3ccccc3c2-c2ccnc(Nc3cccc(-c4cnco4)c3)n2)c1", "XC50": 361}
{"smiles": "CC(=O)Nc1ccc(OCCCN(Cc2ccccc2OC(F)(F)F)c2ccc(C(F)(F)F)c(C#N)c2)c(Cl)c1", "XC50": 813}
{"smiles": "Cc1nc2nc(N)nc(N)c2c(C)c1Cc1cccc(C(N)=O)c1", "XC50": 1080}
{"smiles": "c1ccc(-c2nnc(-c3ccccn3)nc2NC2CCCCC2)cc1", "XC50": 910}
{"smiles": "O=C(NC1CCN(Cc2ccccc2)CC1)c1cc(-c2ccncc2)c(-c2ccc(Cl)c(O)c2)o1", "XC50": 407}
{"smiles": "CC(C)(C)OC(=O)c1c(NC(=O)/C=C/c2ccc(O)c(O)c2)sc2c1CCCC2", "XC50": 819}
{"smiles": "COc1cccc(C(=O)N2CCOC(CCN3CCC(c4ccccc4)CC3)(c3ccc(Cl)c(Cl)c3)C2)c1", "note": "(centres undefined)", "XC50": 505}
{"smiles": "COc1ccc(OC)c(-c2ccc(O)c(CNCC(C)c3ccccc3)c2)c1", "note": "(centres undefined)", "XC50": 933}
{"smiles": "CC(CN(C)C)C(=O)Nc1cccc(-c2ccc(-c3nc4cc(C(F)(F)F)ccc4[nH]3)cc2)c1", "note": "(centres undefined)", "XC50": 248}
{"smiles": "OCC1CCN(Cc2cccc(-c3ccc(-c4nc5cc(C(F)(F)F)ccc5[nH]4)s3)c2)CC1", "XC50": 588}
{"smiles": "CC(C)(C)c1ccc(CNCC(C)(C)c2nc(-c3ccnc(N)n3)c(-c3ccc(Cl)c(O)c3)[nH]2)cc1", "XC50": 697}
{"smiles": "Cc1cccc2nc(-c3cccc(-c4cccc(NC(=O)NCc5cccc(F)c5)c4)c3)[nH]c12", "XC50": 453}
{"smiles": "CCCNCc1ccc(-c2ccc(CN(C(=O)c3nn(-c4ccccc4)nc3C)C(C)CN(C)C)cc2)nc1", "note": "(centres undefined)", "XC50": 923}
{"smiles": "O=C(Nc1cccnc1)c1cc(-c2cccnc2)nc2ccc(Cl)cc12", "XC50": 1060}
{"smiles": "O=S(=O)(NCCN1CCCC1)c1ccc(-c2ccc(CNC3Cc4ccccc4C3)cc2)cc1F", "XC50": 999}
{"smiles": "CCOc1cc(Cl)c(C(C)NC(=O)c2cccc(OC)c2)cc1OCC", "note": "(centres undefined)", "XC50": 956}
{"smiles": "CCCCNc1ccc(C(=O)NC2CCN(C[C@H](O)c3ccnc4ccc(OC)cc34)CC2)cc1", "XC50": 442}
{"smiles": "O=C(/C=C/c1ccc(C(F)(F)F)cc1)NCCCCCN1CCN(C(=O)Nc2ccc(Cl)c(Cl)c2)CC1", "XC50": 867}
{"smiles": "CN1CCCc2ccc(NC(=O)c3cc(-c4ccc(Cl)cc4)cs3)cc2C1", "XC50": 793}
{"smiles": "Cc1nc(-c2nc(NCc3ccccn3)ncc2-c2ccsc2)sc1C", "XC50": 559}
{"smiles": "COc1ccc2c(NN=Cc3ccc(Cl)cc3)ccnc2c1", "XC50": 865}
{"smiles": "CCCNCc1ccc(-c2ccc(CN(CCOC)C(=O)CCc3ccc(OC)cc3)cc2)nc1", "XC50": 981}
{"smiles": "CCCNCCc1ccc(NS(=O)(=O)c2cccc(-c3ccc(Cl)cc3)c2)cc1", "XC50": 975}
{"smiles": "CN(C)CCCNc1ncnc2c1[nH]c1ccc(Cl)cc12", "XC50": 279}
{"smiles": "Cc1ccc(C2(C)CC(C)(C)N(C(=O)COc3ccc4ccccc4c3)c3ccccc32)cc1", "note": "(centres undefined)", "XC50": 113}
{"smiles": "Cc1[nH]c2ccccc2c1C=NNc1nc(=Nc2ccccc2)[nH]c(=Nc2ccccc2)[nH]1", "XC50": 926}
{"smiles": "CC[C@H]1CN2CCc3cc(OC)c(OC)cc3[C@@H]2C[C@@H]1C[C@H]1NCCc2c1cc(OC)c(OC)c2Br", "XC50": 650}
{"smiles": "CC(=O)Nc1ccc(COc2ccc(Nc3ccnc4cc(-c5ccccn5)ccc34)cc2)cc1", "XC50": 196}
{"smiles": "O=C(N[C@@H](Cc1ccccc1)C(=O)NCCN1CCOCC1)c1ccc(O)c(-c2ccc(Cl)c(Cl)c2)c1", "XC50": 921}
{"smiles": "O=C(Nc1ccc(Oc2cccnc2)cc1)C1CCN(Cc2cc(Cl)ccc2O)CC1", "XC50": 1350}
{"smiles": "CN(C)CCNC(=O)c1cc2c(-c3ccc(Cl)cc3)nn(C)c2s1", "XC50": 665}
{"smiles": "COc1nc2c(CCN3CCC(NCc4ccc5c(n4)NC(=O)CO5)CC3)c(Cl)cnc2cc1F", "XC50": 418}
{"smiles": "Cc1cc(N)c2cc(NC(=O)c3cccc(C(=O)Nc4ccc5nc(C)cc(N)c5c4)c3)ccc2n1", "XC50": 256}
{"smiles": "Nc1nc(N)c2c(CCc3ccc(Cl)c(Cl)c3)cccc2n1", "XC50": 669}
{"smiles": "Cc1cccc2nc(-c3cccc(-c4ccc(NC(=O)CCc5c[nH]cn5)cc4)c3)[nH]c12", "XC50": 302}
{"smiles": "CC(Oc1ccc(Cl)cc1)C(=O)Nc1cc(C(F)(F)F)ccc1-n1cncn1", "note": "(centres undefined)", "XC50": 151}
{"smiles": "CNCCNCc1cccc(-c2ccc(-c3nc4ccccc4[nH]3)s2)c1", "XC50": 830}
{"smiles": "Cc1ccc(S(=O)(=O)n2nccc2-c2c(-c3ccc(Cl)cc3)noc2C)cc1", "XC50": 809}
{"smiles": "CCCC(C)N(Cc1ccc(C(C)(C)C)cc1)C(=O)c1cccc(C#N)c1", "note": "(centres undefined)", "XC50": 1050}
{"smiles": "CCOc1cc(C(=O)N[C@@H](Cc2ccccc2)[C@H](O)CNCc2cc(OC)cc(OC)c2)cc(N2CCCC2=O)c1", "XC50": 852}
{"smiles": "CCCOc1ccccc1-c1nc2[nH]c3c(c2c(=O)[nH]1)CCN(C)C3", "XC50": 367}
{"smiles": "Cc1[nH]c(C)c(-c2ccc(CCc3cccc(C(F)(F)F)c3)nc2)c(=O)c1Cl", "XC50": 101}
{"smiles": "O=[N+]([O-])c1ccc(-c2ccc(C=NNc3nc(Nc4ccccc4)nc(Nc4ccccc4)n3)o2)cc1", "XC50": 1430}
{"smiles": "COCCOc1nc(N)nc2ncc(Cc3cc(OC)ccc3OC)c(C)c12", "XC50": 426}
{"smiles": "COc1cc2c(cc1NC(=O)CN1CCN(C(=O)c3ccco3)CC1)oc1ccccc12", "XC50": 422}
{"smiles": "Cc1cc(Br)cnc1CCCCNc1cc(=O)c2ccccc2[nH]1", "XC50": 1160}
{"smiles": "CCc1ccc(Cc2cnc3nc(N)nc(N)c3c2C)cc1CC", "XC50": 285}
{"smiles": "CC(C)CN1CCCN(Cc2cccc(NC(=O)c3ccc(-c4ccccc4)cc3)c2)CC1", "XC50": 883}
{"smiles": "Cc1nc(N)nc(N)c1C#CC1CCCC1", "XC50": 768}
{"smiles": "COc1cc2nc(N(C)C)nc(Nc3ccc4c(cnn4Cc4ccccc4)c3)c2cc1OC", "XC50": 44}
{"smiles": "Cc1cc(Cl)ccc1OC(C)C(=O)N1CCc2ccccc21", "note": "(centres undefined)", "XC50": 668}
{"smiles": "CC1CCCN(C(=O)C(C)Nc2cc(Cl)ccc2N2CCOCC2)C1", "note": "(centres undefined)", "XC50": 316}
{"smiles": "COc1ccc(-c2cccc(NC(=O)c3ccc(Cl)cc3)c2)cc1CN1CCNCC1", "XC50": 840}
{"smiles": "CCCC(C)c1ccc(N2C(N)=NC(N)=NC2(C)C)cc1", "note": "(centres undefined)", "XC50": 6.27}
{"smiles": "O=c1cc(NCCCNCc2cccc(OC(F)(F)F)c2)[nH]c2ccccc12", "XC50": 854}
{"smiles": "COc1ccc(CN(C)CCOc2ccc(NC(=O)c3cccc4c(=O)c5cc(SC)ccc5[nH]c34)cc2)cc1OC", "XC50": 877}
{"smiles": "CCc1cn(C)c2c(N3CCCC3=O)cc(C(=O)N[C@@H](Cc3ccccc3)[C@H](O)CNC(C)(C)c3cccc(OC)c3)cc12", "XC50": 36}
{"smiles": "O=C(Nc1cccc(-c2cccc(-c3nc4cc(F)ccc4[nH]3)c2)c1)Nc1ccc2c(c1)OCO2", "XC50": 137}
{"smiles": "CCOC(=O)c1ccc(-n2c(C)cc(C=C3SC(=Nc4ccccc4)N(C4CCCC4)C3=O)c2C)cc1", "XC50": 1170}
{"smiles": "O=C(Nc1ccc(C(=O)OCC(c2ccccc2)c2ccccc2)cc1)N[C@@H](Cc1ccc(O)cc1)C(=O)NC1CCN(Cc2ccc(O)cc2)C1", "note": "(some centres undefined)", "XC50": 782}
{"smiles": "CCc1c(C)nc(-n2nc(C)cc2NC(=O)CC(c2ccccc2)c2ccccc2)[nH]c1=O", "XC50": 652}
{"smiles": "CC(C)(C)c1ccc(CN2CCC(CNC(=O)c3cc(-c4ccccc4)nc4ccccc34)CC2)cc1", "XC50": 1020}
{"smiles": "CC1CCN(C(=O)C(Cc2c[nH]c3ccccc23)NS(=O)(=O)c2ccc(Cl)cc2)CC1", "note": "(centres undefined)", "XC50": 717}
{"smiles": "CN1CCN(c2ccnc3ccc(NC(=O)Nc4ccc5c(c4)CCC5=O)cc23)CC1", "XC50": 330}
{"smiles": "CN1CCN(c2cc(-c3cccnc3)nc(-c3ccncc3)n2)CC1", "XC50": 554}
{"smiles": "Cc1cc(NC(=O)[C@H](CC(C)C)Nc2ccc(C#N)c3ccccc23)ccc1F", "XC50": 777}
{"smiles": "COc1ccc(NC(=O)c2ccc(Br)c(C)c2)cc1N1CCN(CCCc2c[nH]c3ccccc23)CC1", "XC50": 382}
{"smiles": "Cc1ccc(-c2cc(C(=O)Nc3ccc(S(=O)(=O)N4CCCC(C)C4)cc3)[nH]n2)c(O)c1", "note": "(centres undefined)", "XC50": 280}
{"smiles": "CN1CCN(c2cccc(-c3nnc(-c4ccc(OCC(=O)NCc5ccc(C(F)(F)F)cc5)c([N+](=O)[O-])c4)o3)c2)CC1", "XC50": 661}
{"smiles": "COc1ccccc1NC(=O)CSc1nc2cccnc2n1-c1ccccc1OC", "XC50": 362}
{"smiles": "Cc1ccccc1C1CCN(C2CCC(NC(=O)c3cc(-c4ccc(Cl)cc4)cs3)CC2)CC1", "note": "(centres undefined)", "XC50": 158}
{"smiles": "Fc1ccc2[nH]c(-c3cccc(-c4ccc(CNCc5ccccc5)cc4)c3)nc2c1", "XC50": 266}
{"smiles": "O=C(/C=C/c1ccc(Cl)c(Cl)c1)N1CCC(NCc2ccc3[nH]ccc3c2)CC1", "XC50": 1020}
{"smiles": "O=S(=O)(c1ccccc1Cl)N1CCCCC(c2ccc(C(F)(F)F)cc2)=N1", "XC50": 942}
